Values of other authors as cited in patent US5714342A, “Compositions for the detection of protease in biological samples and methods of use therefo” (OncoImmunin, Inc., priority 1995, dated 1998).

details: literature (Forster and Konig 1957; Arbeloa and Ojeda 1982); cited from earlier work

Q: For `O=C1OC2(c3ccccc31)c1cc(Br)c(O)c(Br)c1Oc1c2cc(Br)c(O)c1Br` [Eosin], which “concentration at which ground-state dimerization of free dye in solution was observed” value is on record?
A: higher than 2.8×10^-2 M

Q: Which “concentration at which ground-state dimerization of free dye in solution was observed” value does the source give for `CCN(CC)c1ccc2c(-c3ccccc3C(=O)O)c3ccc(=[N+](CC)CC)cc-3oc2c1` [Rhodamine B] here?
A: higher than 6×10^-4 M

Q: Which “concentration at which ground-state dimerization of free dye in solution was observed” value does the source give for `O=C1OC2(c3ccc(O)cc3Oc3cc(O)ccc32)c2ccccc21` [fluorescein] here?
A: > 0.74 M
